Experimental data as given in patent US8962608B2, “Cycloalkylnitrile pyrazole carboxamides as janus kinase inhibitors” (Merck Sharp & Dohme Corp., priority 2011, dated 2015).

Tests used:
[1] = target: JAK1 (recombinant purified GST-tagged catalytic domain) (Homo sapiens (Human), UniProt P23458); assay: biochemical;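 also: biochemical assay with HTRF read-out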
[2] = target: JAK2 (recombinant purified GST-tagged catalytic domain) (Homo sapiens (Human), UniProt O60674); assay: biochemical;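 also: biochemical JAK kinase assay with HTRF detection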
Chain of JAK2 (recombinant purified GST-tagged catalytic domain) (O60674 849-1124): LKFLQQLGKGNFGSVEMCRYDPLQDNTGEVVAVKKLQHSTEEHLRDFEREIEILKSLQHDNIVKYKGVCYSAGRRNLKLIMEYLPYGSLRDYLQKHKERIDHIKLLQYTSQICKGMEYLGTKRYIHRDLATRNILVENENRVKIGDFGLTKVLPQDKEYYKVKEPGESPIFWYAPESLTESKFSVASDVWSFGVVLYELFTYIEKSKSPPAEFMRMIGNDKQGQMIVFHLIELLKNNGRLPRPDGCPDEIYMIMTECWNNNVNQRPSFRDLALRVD

Chain of JAK1 (recombinant purified GST-tagged catalytic domain) (P23458 875-1153): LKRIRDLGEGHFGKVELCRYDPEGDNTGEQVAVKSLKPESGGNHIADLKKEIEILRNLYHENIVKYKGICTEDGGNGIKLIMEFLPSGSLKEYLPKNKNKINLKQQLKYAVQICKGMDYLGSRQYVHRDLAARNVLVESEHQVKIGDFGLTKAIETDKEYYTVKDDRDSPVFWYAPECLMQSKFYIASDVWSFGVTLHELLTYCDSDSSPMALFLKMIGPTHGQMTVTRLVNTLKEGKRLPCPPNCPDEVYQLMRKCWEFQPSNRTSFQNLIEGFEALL

Compound | IC50 [1] | IC50 [2]
N#C[C@H]1C[C@@H](OC(=O)NC2CCCCC2)CCC1n1cc(C(N)=O)c(Nc2ccc(F)cc2)n1 (mixture of isomers) [Example 34-2, (1S,3S,4S and 1R,3R,4R)-4-{4-carbamoyl-3-[(4-fluorophenyl)amino]-1H-pyrazol-1-yl}-3-cyanocyclohexyl cyclohexylcarbamate] | 5 nM | 164 nM
N#C[C@H]1C[C@H](NCc2ccccc2)CC[C@@H]1n1cc(C(N)=O)c(Nc2ccnc(F)c2)n1 (single isomer, unassigned) [Example 28-123, 1-[(1S,2S,4R or 1R,2R,4S)-4-(benzylamino)-2-cyanocyclohexyl]-3-[(2-fluoropyridm-4-yl)amino]-1H-pyrazole-4-carboxamide] | 2 nM | 56 nM
N#C[C@H]1CCCCC1n1cc(C(N)=O)c(Nc2ccc3c(c2)CCC(=O)N3)n1 (mixture of isomers) [Example 17-11, 1-[(1S,2S and 1R,2R)-2-cyanocyclohexyl]-3-[(2-oxo-1,2,3,4-tetrahydroquinolin-6-yl)amino]-1H-pyrazole-4-carboxamide] | 2 nM | 8 nM
N#C[C@H]1C[C@@H](N2CCOCC2)CCC1n1cc(C(N)=O)c(Nc2ccc(S(=O)(=O)C(F)(F)F)cc2)n1 (mixture of isomers) [Example 27-13, 1-[(1S,2S,4S and 1R,2R,4R)-2-cyano-4-(morpholin-4-yl)cyclohexyl]-3-({4-[(trifluoromethyl)sulfonyl]phenyl)amino)-1H-pyrazole-4-carboxamide] | 0.3 nM | 6 nM
N#C[C@H]1CC(NCC(=O)O)CC[C@@H]1n1cc(C(N)=O)c(Nc2ccc(S(=O)(=O)C(F)(F)F)cc2)n1 (single isomer, unassigned) [Example 28-160, N-{(3S,4S or 3R,4R)-4-[4-carbamoyl-3-({4-[(trifluoro-methyl)sulfonyl]phenyl}amino)-1H-pyrazol-1-yl]-3-cyanocyclohexyl}glycine] | 0.2 nM | 1 nM
N#C[C@H]1C[C@@H](CF)CC[C@@H]1n1cc(C(N)=O)c(Nc2ccnc(F)c2)n1 (racemic) [Example 37, 1-[(1S,2S,4S and 1R,2R,4R)-2-Cyano-4-(fluoromethyl)cyclohexyl]-3-[(2-fluoropyridin-4-yl)amino]-1H-pyrazole-4-carboxamide] | 0.8 nM | 13 nM
CC(=O)c1ccc(Nc2nn([C@H]3CC[C@@H](N4CCC4)C[C@@H]3C#N)cc2C(N)=O)cc1 (single isomer, unassigned) [Example 28-83, 3-[(4-acetylphenyl)amino]-1-[(1S,2S,4R or 1R,2R,4S)-4-azetidin-1-yl-2-cyanocyclohexyl]-1H-pyrazole-4-carboxamide] | 0.4 nM | 18 nM
N#C[C@H]1C[C@@H](C(=O)NC(C2CC2)C2CC2)CC[C@@H]1n1cc(C(N)=O)c(Nc2ccc(Cl)cc2)n1 (single isomer, unassigned) [Example 35-21, 3-[(4-chlorophenyl)amino]-1-{(1S,2S,4S or 1R,2R,4R)-2-cyano-4-[(dicyclopropylmethyl)carbamoyl]cyclohexyl}-1H-pyrazole-4-carboxamide] | 25 nM | 500 nM
CC1CN([C@H]2CC[C@H](n3cc(C(N)=O)c(Nc4ccc(Cl)cc4)n3)[C@@H](C#N)C2)C1 (single isomer, unassigned) [Example 28-96, 3-[(4-chlorophenyl)amino]-1-[(1S,2S,4S or 1R,2R,4R)-2-cyano-4-(3-methylazetidin-1-yl)cyclohexyl]-1H-pyrazole-4-carboxamide] | 2 nM | 85 nM
N#C[C@H]1C[C@H](O)CC[C@@H]1n1cc(C(N)=O)c(Nc2ccc(Cl)c(Cl)c2)n1 (single isomer, unassigned) [Example 25-6, 1-[(1S,2S,4R or 1R,2R,4S)-2-cyano-4-hydroxycyclohexyl]-3-[(3,4-dichlorophenyl)amino]-1H-pyrazole-4-carboxamide] | 3 nM | 20 nM
N#C[C@H]1C[C@@H](O)CC[C@@H]1n1cc(C(N)=O)c(Nc2ccc(C(F)(F)F)nc2)n1 (single isomer, unassigned) [Example 33-9, 1-[(1S,2S,4S or 1R,2R,4R)-2-cyano-4-hydroxycyclohexyl]-3-{[6-(trifluoromethyl)pyridin-3-yl]amino}-1H-pyrazole-4-carboxamide] | 21 nM | 65 nM
N#C[C@@H]1C[C@H](C(=O)NC2COC2)CC[C@H]1n1cc(C(N)=O)c(Nc2ccc(Cl)cc2)n1 (single isomer, unassigned) [Example 35-13, 3-[(4-chlorophenyl)amino]-1-[(1R,2R,4R or 1S,2S,4S)-2-cyano-4-(oxetan-3-ylcarbamoyl)cyclohexyl]-1H-pyrazole-4-carboxamide] | 5 nM | 38 nM
N#C[C@H]1CCCC[C@@H]1n1cc(C(N)=O)c(Nc2ccc(S(=O)(=O)NCc3ccc(C(F)(F)F)cc3)cc2)n1 (single isomer, unassigned) [Example 17-96, 1-[(1R,2R or 1S,2S)-2-cyanocyclohexyl]-3-[(4-{[4-(trifluoromethyl)benzyl]sulfamoyl}phenyl)amino]-1H-pyrazole-4-carboxamide] | 2 nM | 7 nM
C[C@H](N[C@@H]1CC[C@H](n2cc(C(N)=O)c(Nc3ccc(Cl)c(F)c3)n2)[C@@H](C#N)C1)C1CC1 (single isomer, unassigned) [Example 28-48, 3-[(4-chloro-3-fluorophenyl)amino]-1-[(1S,2S,4R or 1R,2R,4S)-2-cyano-4-{[(1S or 1R)-1-cyclopropylethyl]amino}cyclo-hexyl]-1H-pyrazole-4-carboxamide] | 8 nM | 215 nM
C[N+]1([C@H]2CC[C@H](n3cc(C(N)=O)c(Nc4ccc(C(F)(F)F)cc4)n3)[C@@H](C#N)C2)CCC1 (single isomer, unassigned) [Example 31-1, 1-((1S,3S,4S or 1R,3R,4R)-4-(4-carbamoyl-3-((4-(trifluoromethyl)phenyl)amino)-1H-pyrazol-1-yl)-3-cyanocyclohexyl)-1-methylazetidin-1-ium 2,2,2-trifluoroacetate] | 0.3 nM | 33 nM
N#C[C@H]1C[C@H](N2CCC2)CC[C@@H]1n1cc(C(N)=O)c(Nc2ccc(C(F)(F)F)cc2)n1 (single isomer, unassigned) [Example 28-131, 1-[(1S,2S,4R or 1R,2R,4S)-4-azetidin-1-yl-2-cyanocyclohexyl]-3-{[4-(trifluoromethyl)phenyl]amino}-1H-pyrazole-4-carboxamide] | 0.9 nM | 51 nM
CC(=O)O[C@H]1C[C@H](C#N)[C@@H](n2cc(C(N)=O)c(Nc3ccc(C(F)(F)F)cc3)n2)C[C@@H]1O [Example 41] | 20 nM | 184 nM
N#C[C@H]1CC(N(C2CC2)C2CC2)CC[C@@H]1n1cc(C(N)=O)c(Nc2ccc(S(=O)(=O)C(F)(F)F)cc2)n1 (single isomer, unassigned) [Example 28-181, 1-[(1S,2S or 1R,2R)-2-cyano-4-(dicyclopropylamino)cyclohexyl]-3-({4-[(trifluoro-methyl)sulfonyl]phenyl}amino)-1H-pyrazole-4-carboxamide] | 1 nM | 16 nM
N#C[C@H]1CCCC[C@@H]1n1cc(C(N)=O)c(Nc2ccc(S(=O)(=O)NC3CCCCC3)cc2)n1 (single isomer, unassigned) [Example 17-82, 1-[(1R,2R or 1S,2S)-2-cyanocyclohexyl]-3-{[4-(cyclohexylsulfamoyl)phenyl]amino}-1H-pyrazole-4-carboxamide] | 0.5 nM | 1 nM
